Reference: patent publication US20090099195A1 (ASTRAZENECA AB, priority 2007, published 2009)

Key:
[1] = molecular target: T1, rat P2X2/3 (rat P2X3 co-expressed with rat P2X2) (Rattus norvegicus, UniProt P49653+P49654); experiment: rat P2X2/3 FLIPR calcium (Fluo-4) antagonist assay; details: Rat P2X2/3 FLIPR Mean IC50 (nM), HEK-TREX cells, tetracycline-induced rat P2X3 with constitutive rat P2X2; agonist 500 nM α,β-methylene-ATP
T1 sequence (P49654 1-397): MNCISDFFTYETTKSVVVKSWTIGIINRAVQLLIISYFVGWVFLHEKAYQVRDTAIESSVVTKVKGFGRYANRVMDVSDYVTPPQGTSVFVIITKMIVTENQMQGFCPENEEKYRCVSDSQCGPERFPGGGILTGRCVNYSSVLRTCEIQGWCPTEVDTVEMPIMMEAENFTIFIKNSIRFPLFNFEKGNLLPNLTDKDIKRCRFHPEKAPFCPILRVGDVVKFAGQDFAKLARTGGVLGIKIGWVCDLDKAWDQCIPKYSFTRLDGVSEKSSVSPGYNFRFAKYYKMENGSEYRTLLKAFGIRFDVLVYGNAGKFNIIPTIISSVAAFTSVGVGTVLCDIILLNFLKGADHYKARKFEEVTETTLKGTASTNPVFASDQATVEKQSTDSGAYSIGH
T1 sequence (P49653 1-472): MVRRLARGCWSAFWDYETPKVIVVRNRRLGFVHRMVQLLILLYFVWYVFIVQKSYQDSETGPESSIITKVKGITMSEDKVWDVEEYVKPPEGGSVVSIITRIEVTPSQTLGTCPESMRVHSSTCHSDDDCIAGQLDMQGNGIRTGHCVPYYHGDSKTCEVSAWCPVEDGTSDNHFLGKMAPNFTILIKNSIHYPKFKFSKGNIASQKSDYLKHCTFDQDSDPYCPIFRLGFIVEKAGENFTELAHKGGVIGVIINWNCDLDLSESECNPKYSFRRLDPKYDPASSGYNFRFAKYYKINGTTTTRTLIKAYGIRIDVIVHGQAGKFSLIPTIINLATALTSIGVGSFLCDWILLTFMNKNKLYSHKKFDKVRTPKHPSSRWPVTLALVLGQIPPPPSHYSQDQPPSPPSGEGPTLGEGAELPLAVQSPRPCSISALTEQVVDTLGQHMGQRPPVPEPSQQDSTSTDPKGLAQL

[2] = molecular target: T2, hP2X3 (human Purinergic P2X receptors subtype 3), clone B (Homo sapiens, UniProt P56373); experiment: hP2X3 FLIPR calcium (Fluo-4) antagonist assay, clone B; details: Human P2X3 FLIPR Clone B IC50 (nM), RLE cells expressing hP2X3 clone B (NM_002559); agonist 500 nM α,β-methylene-ATP
T2 sequence (P56373 1-397): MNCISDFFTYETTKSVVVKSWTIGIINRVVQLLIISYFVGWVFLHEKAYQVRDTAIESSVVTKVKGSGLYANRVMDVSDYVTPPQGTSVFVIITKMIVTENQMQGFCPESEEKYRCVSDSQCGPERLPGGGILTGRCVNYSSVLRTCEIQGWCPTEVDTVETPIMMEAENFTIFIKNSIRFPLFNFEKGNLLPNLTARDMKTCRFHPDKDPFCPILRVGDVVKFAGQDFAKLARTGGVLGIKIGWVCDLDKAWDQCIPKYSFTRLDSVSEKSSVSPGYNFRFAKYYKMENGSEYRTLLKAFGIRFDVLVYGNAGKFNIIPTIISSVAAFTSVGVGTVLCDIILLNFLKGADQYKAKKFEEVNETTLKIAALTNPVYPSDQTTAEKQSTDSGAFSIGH
Method: The assay used a calcium indicator dye (Fluo-4) that emits fluorescence, the intensity of which is related to the concentration of calcium that entered the cell when P2X3 was activated and the channel opened. Activation of hP2X3 or rat P2X3 and rat P2X2/3 (from the coexpression of rat P2X3 and rat P2×2) is elicited the by P2X3 agonist α,β methylene-ATP (Sigma M6517), and the resulting fluorescence is measured with a FLIPR II™ instrument (Molecular Devices). Compounds are tested for their ability to inhibit the agonist-induced fluorescent signal.
For the rat P2X2/3 HEK-TREX cells, induction of the rat P2X3 expression is used to generate the rat P2X2/3 channels in HEK-TREX cells and performed by addition of 1 μg/mL tetracycline (Invitrogen) 24 h prior to compounds testing to the HEK-TREX expressing the rat P2X2 constitutively. On the day of the experiment, the cells and test compounds are prepared as follows. […] After preparing the compounds, the medium is removed from the cell plates by inversion. A loading solution of 30 μL assay buffer containing 4 μM of the calcium indicator dye FLUO-4 AM (Molecular Probes F14202) is added to each well using a Multidrop (Labsystems). […] The incubation is terminated by washing the cells four times in assay buffer using a Skatron Embla (Molecular Devices), and 25 μL of assay buffer was left in each well. Cell plates are then transferred to the FLIPR. Experiments are initiated by measuring a baseline fluorescence reading for 10 seconds, followed by the addition of 12.5 μL of cpds and data sampling for a total 280 seconds. The experiments are terminated by addition of 12.5 μL of a reference agonist (500 nM α,β-methylene-ATP) or buffer, producing a final assay volume of 50 μL followed by data sampling for an additional 280 seconds.
In P2X3 antagonist experiments (human and rat assays) data are analysed as normalised maximal peak fluorescence monitored following agonist addition and calculated as percent of relative fluorescent counts from control agonist. The dose-response antagonist inhibition curves are analyzed in a 4-parameter sigmoidal fit using a non-linear curve-fitting program (XLfit version 5.0.6, ID Business Solutions Limited, Guildford, UK).

| Compound | IC50 [1] | IC50 [2] |
| --- | --- | --- |
| COc1ccc(CC(C)(C)Nc2nc(N3CCN(C(C)=O)CC3)nc3c2CN(C(C)C)C3=O)cc1 [Example 196, 2-(4-acetylpiperazin-1-yl)-6-isopropyl-4-(1-(4-methoxyphenyl)-2-methylpropan-2-ylamino)-5H-pyrrolo[3,4-d]pyrimidin-7(6H)-one] | 2180 nM | 90 nM |
| CC(=O)N1CCN(c2nc3c(c(N4CCCC4c4cccc(Cl)c4)n2)CN(C(C)C)C3=O)CC1 (centres unmarked) [Example 132, 2-(4-Acetylpiperazin-1-yl)-4-(2-(3-chlorophenyl)pyrrolidin-1-yl)-6-isopropyl-5H-pyrrolo[3,4-d]pyrimidin-7(6H)-one] | 13300 nM | 1400 nM |
| CC(=O)N1CCN(c2nc(NC(C)c3cnn(-c4ccccc4F)c3)c3c(n2)C(=O)N(C(C)C)C3)CC1 (centres unmarked) [Example 149, 4-(4-acetylpiperazin-1-yl)-2-[1-[1-(2-fluorophenyl)pyrazol-4-yl]ethylamino]-8-propan-2-yl-3,5,8-triazabicyclo[4.3.0]nona-1,3,5-trien-7-one] | 5070 nM | 260 nM |
| CC(=O)N1CCN(c2nc(N[C@H](C)c3ccc4c(c3)CCCC4)c3c(n2)C(=O)N(C(C)C)C3)CC1 [Example 166, (R)-2-(4-acetylpiperazin-1-yl)-6-isopropyl-4-(1-(5,6,7,8-tetrahydronaphthalen-2-yl)ethylamino)-5H-pyrrolo[3,4-d]pyrimidin-7(6H)-one] | 1900 nM | 47 nM |
| CCC(c1ccccc1)C1CCCN1c1nc(N2CCN(C(C)=O)CC2)nc2c1CN(C(C)C)C2=O (centres unmarked) [Example 275, 4-(4-acetylpiperazin-1-yl)-2-[2-(1-phenylpropyl)pyrrolidin-1-yl]-8-propan-2-yl-3,5,8-triazabicyclo[4.3.0]nona-2,4,10-trien-7-one] | 10300 nM | 760 nM |
| CC(=O)N1CCN(c2nc3c(c(N4CCC[C@@H]4C(=O)OCc4ccccc4)n2)CN(C(C)C)C3=O)CC1 [Example 265, benzyl (2R)-1-[4-(4-acetylpiperazin-1-yl)-7-oxo-8-propan-2-yl-3,5,8-triazabicyclo[4.3.0]nona-1,3,5-trien-2-yl]pyrrolidine-2-carboxylate] | 15700 nM | 850 nM |
| CCC(C)N1Cc2c(NCc3cc4ccccc4cn3)nc(N3CCN(C(C)=O)CC3)nc2C1=O (single isomer, unassigned; (-)) [Example 311, (−)-2-(4-acetylpiperazin-1-yl)-4-(3-isoquinolylmethylamino)-6-sec-butyl-5H-pyrrolo[3,4-d]pyrimidin-7-one] | 1680 nM | 28 nM |
| CC(=O)N1CCN(c2nc(N[C@H](C)c3ccc4ncccc4c3)c3c(n2)C(=O)N(C(C)C)C3)CC1 [Example 243, (R)-2-(4-acetylpiperazin-1-yl)-6-isopropyl-4-(1-(quinolin-6-yl)ethylamino)-5H-pyrrolo[3,4-d]pyrimidin-7(6H)-one] | 1240 nM | 36 nM |
| CC(=O)N1CCN(c2nc(NC(C)(C)Cc3ccc(C)cc3)c3c(n2)C(=O)N(C(C)C)C3)CC1 [Example 164, 2-(4-acetylpiperazin-1-yl)-6-isopropyl-4-(2-methyl-1-p-tolylpropan-2-ylamino)-5H-pyrrolo[3,4-d]pyrimidin-7(6H)-one] | 2910 nM | 56 nM |
| CCC(C)N1Cc2c(NCc3cnn(-c4ccccc4)c3)nc(N3CCN(C(C)=O)CC3)nc2C1=O (single isomer, unassigned; (-)) [Example 307, (−)-4-(4-acetylpiperazin-1-yl)-8-butan-2-yl-2-[(1-phenylpyrazol-4-yl)methylamino]-3,5,8-triazabicyclo[4.3.0]nona-1,3,5-trien-7-one] | 12000 nM | 150 nM |
| CCN(Cc1cc2ccccc2cn1)c1nc(N2CCN(C(C)=O)CC2)nc2c1CN(C(C)C)C2=O [Example 245, 2-(4-acetylpiperazin-1-yl)-4-(ethyl(isoquinolin-3-ylmethyl)amino)-6-isopropyl-5H-pyrrolo[3,4-d]pyrimidin-7(6H)-one] | 2160 nM | 28 nM |
| CC(=O)N1CCN(c2nc3c(c(N4CCCCC4Cc4ccc(F)cc4)n2)CN(C(C)C)C3=O)CC1 (centres unmarked) [Example 268, 4-(4-acetylpiperazin-1-yl)-2-[2-[(4-fluorophenyl)methyl]-1-piperidyl]-8-propan-2-yl-3,5,8-triazabicyclo[4.3.0]nona-1,3,5-trien-7-one] | 12400 nM | 500 nM |

Results, then the compound that gave them:

| IC50 [1] | IC50 [2] | Compound |
| --- | --- | --- |
| 74.4 nM | 21 nM | CC(=O)N1CCN(c2nc(N[C@H](C)c3cnc4ccccc4c3)c3c(n2)C(=O)N(C(C)C)C3)CC1 [Example 233, (R)-2-(4-acetylpiperazin-1-yl)-6-isopropyl-4-(1-(quinolin-3-yl)ethylamino)-5H-pyrrolo[3,4-d]pyrimidin-7(6H)-one] |
| 2530 nM | 550 nM | CC(=O)N1CCN(c2nc3c(c(N4CCCC4c4cnc5ccccc5c4)n2)CN(C(C)C)C3=O)CC1 (single isomer, unassigned) [Example 282, 4-(4-acetylpiperazin-1-yl)-8-propan-2-yl-2-(2-quinolin-3-ylpyrrolidin-1-yl)-3,5,8-triazabicyclo[4.3.0]nona-1,3,5-trien-7-one] |
| 6320 nM | 130 nM | CC(=O)N1CCN(c2nc(NCc3ccc(OC(F)(F)F)cc3C)c3c(n2)C(=O)N(C(C)C)C3)CC1 [Example 122, 2-(4-acetylpiperazin-1-yl)-6-isopropyl-4-{[2-methyl-4-(trifluoromethoxy)benzyl]amino}-5,6-dihydro-7H-pyrrolo[3,4-d]pyrimidin-7-one] |
| 14600 nM | 120 nM | CC(=O)N1CCN(c2nc(NCc3cncc4ccccc34)c3c(n2)C(=O)N(C(C)C)C3)CC1 [Example 229, 2-(4-acetylpiperazin-1-yl)-6-isopropyl-4-(isoquinolin-4-ylmethylamino)-5H-pyrrolo[3,4-d]pyrimidin-7(6H)-one] |
| 1110 nM | 63 nM | CC(=O)N1CCN(c2nc3c(c(N(Cc4cc5ccccc5cn4)CC4CC4)n2)CN(C(C)C)C3=O)CC1 [Example 253, 2-(4-acetylpiperazin-1-yl)-4-((cyclopropylmethyl)(isoquinolin-3-ylmethyl)amino)-6-isopropyl-5H-pyrrolo[3,4-d]pyrimidin-7(6H)-one] |
| 4800 nM | 45 nM | CC(=O)N1CCN(c2nc(NCc3cc(-c4ccccc4)on3)c3c(n2)C(=O)N(C(C)C)C3)CC1 [Example 144, 4-(4-acetylpiperazin-1-yl)-2-[(5-phenyl-1,2-oxazol-3-yl)methylamino]-8-propan-2-yl-3,5,8-triazabicyclo[4.3.0]nona-1,3,5-trien-7-one] |
| 3970 nM | 34 nM | CCC(C)N1Cc2c(NCc3cnn(-c4ccccc4)c3)nc(N3CCN(C(C)=O)CC3)nc2C1=O (single isomer, unassigned; (+)) [Example 306, (+)-4-(4-acetylpiperazin-1-yl)-8-butan-2-yl-2-[(1-phenylpyrazol-4-yl)methylamino]-3,5,8-triazabicyclo[4.3.0]nona-1,3,5-trien-7-one] |
| 1910 nM | 66 nM | CC(=O)N1CCN(c2nc(N[C@@H](C)c3cnc4ccccc4c3)c3c(n2)C(=O)N(C(C)C)C3)CC1 (single isomer, unassigned) [Example 345] |
| 10400 nM | 68 nM | CCN(Cc1cnc2ccccc2c1)c1nc(N2CCN(C(C)=O)CC2)nc2c1CN(C(C)C)C2=O [Example 246, 2-(4-acetylpiperazin-1-yl)-4-(ethyl(quinolin-3-ylmethyl)amino)-6-isopropyl-5H-pyrrolo[3,4-d]pyrimidin-7(6H)-one] |
| 3300 nM | 71 nM | CC(=O)N1CCN(c2nc(N[C@H](C)c3ccc(OC(F)F)cc3)c3c(n2)C(=O)N(C(C)C)C3)CC1 [Example 114, 2-(4-acetylpiperazin-1-yl)-4-({(1R)-1-[4-(difluoromethoxy)phenyl]ethyl}amino)-6-isopropyl-5,6-dihydro-7H-pyrrolo[3,4-d]pyrimidin-7-one] |
